From ChEMBL document CHEMBL1142404, “Synthesis of 2-modified aristeromycins and their analogs as potent inhibitors against Plasmodium falciparum S-adenosyl-L-homocysteine hydrolase” (Bioorg Med Chem, 2008)

Tests used:
[1] = test system: adenosine deaminase; assay: Metabolic stability in presence of calf intestinal adenosine deaminase assessed as compound remaining after 15 mins; type: ADME; conditions: cattle, read-out: Activity
[2] = molecular target: Adenosylhomocysteinase (Homo sapiens, UniProt P23526); assay: Inhibition of human SAHH
Chain of Adenosylhomocysteinase (Homo sapiens, UniProt P23526) (P23526 whole entry): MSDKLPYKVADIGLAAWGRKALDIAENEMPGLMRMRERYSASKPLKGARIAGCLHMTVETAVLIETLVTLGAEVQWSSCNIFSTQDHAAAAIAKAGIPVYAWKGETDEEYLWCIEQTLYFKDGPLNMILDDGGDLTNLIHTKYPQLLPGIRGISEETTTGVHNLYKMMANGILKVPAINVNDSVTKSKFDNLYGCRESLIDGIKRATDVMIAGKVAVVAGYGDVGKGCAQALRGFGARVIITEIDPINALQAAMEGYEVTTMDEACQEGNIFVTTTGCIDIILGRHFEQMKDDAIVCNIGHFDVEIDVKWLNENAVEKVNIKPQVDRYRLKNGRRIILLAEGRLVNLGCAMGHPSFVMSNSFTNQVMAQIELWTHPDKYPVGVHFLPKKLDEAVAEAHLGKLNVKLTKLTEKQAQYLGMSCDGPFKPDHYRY

[3] = molecular target: Adenosylhomocysteinase (Plasmodium falciparum 3D7, UniProt P50250); assay: Inhibition of Plasmodium falciparum SAHH
Chain of Adenosylhomocysteinase (Plasmodium falciparum 3D7, UniProt P50250) (P50250 whole entry): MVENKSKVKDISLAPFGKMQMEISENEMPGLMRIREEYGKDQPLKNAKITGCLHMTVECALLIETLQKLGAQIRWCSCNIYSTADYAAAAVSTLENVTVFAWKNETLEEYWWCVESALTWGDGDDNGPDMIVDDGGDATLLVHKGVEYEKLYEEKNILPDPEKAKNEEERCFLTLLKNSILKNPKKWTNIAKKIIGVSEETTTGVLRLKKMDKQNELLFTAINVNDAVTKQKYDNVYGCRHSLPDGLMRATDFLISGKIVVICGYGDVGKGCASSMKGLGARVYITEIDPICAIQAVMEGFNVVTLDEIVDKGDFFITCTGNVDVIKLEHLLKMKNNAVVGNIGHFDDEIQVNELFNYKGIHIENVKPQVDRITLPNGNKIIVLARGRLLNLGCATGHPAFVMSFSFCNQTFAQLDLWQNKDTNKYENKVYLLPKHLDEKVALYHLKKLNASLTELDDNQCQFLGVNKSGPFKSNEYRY

| remaining at 0.25 h [1] [%] | IC50 [2] [µM] | IC50 [3] [µM] | SMILES |
| --- | --- | --- | --- |
| 95.2 | 90.7 | 4.51 | Nc1nc(N)c2ncn([C@@H]3C[C@H](CO)[C@@H](O)[C@H]3O)c2n1 |
| 99.5 | 47.2 | 1.98 | Nc1nc(F)nc2c1ncn2[C@@H]1C[C@H](CO)[C@@H](O)[C@H]1O |
| 22.4 | – | – | Nc1ncnc2c1ncn2[C@@H]1C[C@H](CO)[C@@H](O)[C@H]1O [ARISTEROMYCIN] |
